Measured values reported in patent US20150299219A1, “BICYCLIC PYRAZOLONE COMPOUNDS AND METHODS OF USE” (Calitor Sciences, LLC, priority 2014, published 2015).

Experiments:
[1] = Pharmacokinetic profiles in rats; assay type: in vivo; settings: for clearance (CL) / AUC(0-t) / half-life / Vd: iv dosing, 1 mg/kg; for AUC(0-t) / half-life / Vd / bioavailability: rat, plasma; for Vd: read-out: Vss; for bioavailability: po, bioavailability (F)
Method: The LC/MS/MS system used in the analysis consists of an Agilent 1200 Series vacuum degasser, binary pump, well-plate autosampler, thermostatted column compartment, the Agilent G6430 Triple Quadrupole Mass Spectrometer with an electrosprayionization (ESI) source. Quantitative analysis was carried out using MRM mode. The parameters for MRM transitions are in the Table A.
An Agilent XDB-C18, 2.1×30 mm, 3.5 μM column was used for the analysis. 5 μL of the samples were injected. Analysis condition: The mobile phase was 0.1% formic acid in water (A) and 0.1% formic acid in methanol (B). The flow rate was 0.4 mL/min. And the gradient of Mobile phase was in the Table B.
Alternatively, an Agilent 6330 series LC/MS/MS spectrometer equipped with G1312A binary pumps, a G1367A autosampler and a G1314C UV detector were used in the analysis. An ESI source was used on the LC/MS/MS spectrometer. The analysis was done in positive ion mode as appropriate and the MRM transition for each analyte was optimized using standard solution. A Capcell MP-C18 100×4.6 mm I.D., […] column (Phenomenex, Torrance, Calif., USA) was used during the analysis. The mobile phase was 5 mM ammonia acetate, 0.1% MeOH in water (A): 5 mM ammonia acetate, 0.1% MeOH in acetonitrile (B) (70/30, v/v). The flow rate was 0.6 mL/min. Column was maintained at ambient temperature. 20 μL of the samples were injected.
The compounds disclosed herein are assessed in pharmacokinetic studies in mice, rats, dogs or monkeys. The compounds are administered as a water solution, 2% HPMC+1% TWEEN®80 in water solution, 5% DMSO+5% solutol in saline, 4% MC suspension or capsule. For the intravenous administration, the animals are generally given at 1 or 2 mg/kg dose. For the oral (p.o.) dosing, mice and rats are generally given 5 or 10 mg/kg dose, and dogs and monkeys are generally given 10 mg/kg dose. The blood samples (0.3 mL) are drawn at 0.25, 0.5, 1.0, 2.0, 3.0, 4.0, 6.0, 8.0, 12 and 24 h time points or 0.083, 0.25, 0.5, 1.0, 2.0, 4.0, 6.0, 8.0 and 24 h time points and centrifuged at 3,000 or 4000 rpm for 2 to 10 min. The plasma solutions are collected, and stored at −20° C. or −70° C. until analyzed by LC/MS/MS as described above.

[2] = Compound stability in rat liver microsomes; assay type: in vitro ADME; settings: for half-life: pH 7.4, 0.5 mg protein/mL, NADPH, 37° C.; for CLint scaled: pH 7.4, in vivo CLint extrapolated
Method: Human or rat liver microsomes incubations were conducted in duplicate in polypropylene tubes. The typical incubation mixtures consisted of human or rat liver microsomes (0.5 mg protein/mL), compounds of interest (5 μM) and NADPH (1.0 mM) in a total volume of 200 μL potassium phosphate buffer (PBS, 100 mM, pH 7.4). Compounds were dissolved in DMSO and diluted with PBS such that the final concentration of DMSO was 0.05%. The enzymatic reactions were commenced with the addition of protein after a 3-min preincubation and incubated in a water bath open to the air at 37° C. Reactions were terminated at various time points (0, 5, 10, 15, 30, 60 min) by adding equal volume of ice-cold acetonitrile. The samples were stored at −80° C. until LC/MS/MS assays.
The concentrations of compounds in the incubation mixtures of human or rat liver microsomes were determined by a LC/MS/MS method. The ranges of the linearity in the concentration range were determined for each tested compounds.
A parallel incubation was performed using denatured microsomes as the negative control, and reactions were terminated at various time points (0, 15, 60 min) after incubation at 37° C.
Dextromethorphan (70 μM) was selected as the positive control, and reactions were terminated at various time points (0, 5, 10, 15, 30, 60 min) after incubation at 37° C. Both positive and negative control samples were included in each assay to ensure the integrity of the microsomal incubation system.
Alternatively, the stability of some of the compounds disclosed herein in human (or rat) liver microsomes were also conducted in the following protocol. The incubations were conducted in duplicate in polypropylene tubes. The typical incubation mixtures consisted of liver microsomes (final concentration: 0.5 mg protein/mL), compounds (final concentration: 1.5 μM) in a total volume of 30 μL K-buffer (contain 1.0 mM EDTA, 100 mM, pH7.4). Compounds were dissolved in DMSO and diluted with K-buffer such that the final concentration of DMSO was 0.2%. The enzymatic reactions were commenced with the addition of 15 μL of NADPH (final concentration: 2 mM) after 10 min preincubation and incubated in a 37° C. incubator. Reactions were terminated at various time points (0, 15, 30, 60 min) by adding 135 μL acetonitrile (contain IS). Protein is removed by centrifugation with 4000 rpm, 10 min. Supernatant was collected for LCMS/MS analysis
In the above protocol, ketanserin (1 μM) was selected as the positive control, and reactions were terminated at various time points (0, 15, 30, 60 min) after incubation at 37° C. The positive control sample was included in each assay to ensure the integrity of the microsomal incubation system.
The concentrations of compounds in human or rat liver microsome incubations were plotted as a percentage of the relevant zero time point control for each reaction. The in vivo CLint were extrapolated (ref: Naritomi, Y.; Terashita, S.; Kimura, S.; Suzuki, A.; Kagayama, A.; and Sugiyama, Y.; Prediction of human hepatic clearance from in vivo animal experiments and in vitro metabolic studies with liver microsomes from animals and humans. Drug Metab. Dispos., 2001, 29: 1316-1324).

clearance (CL) [1] [mL/min/kg] | AUC(0-t) [1] [ng·h/mL] | half-life [1] [h] | Vd [1] [L/kg] | bioavailability [1] [%] | half-life [2] [h] | CLint scaled [2] [mL/min/kg] | Compound
0.55 | 27200 | 7.71 | 0.313 | 68.1 | 3.19 | 13 | O=C(Nc1ccc(Oc2ccnc(NC(=O)C3CC3)c2)cc1)c1c2n(n(-c3ccccc3)c1=O)CCC2 [Ex. 2, N-(4-((2-(cyclopropanecarboxamido)pyridin-4-yl)oxy)phenyl)-2-oxo-1-phenyl-2,4,5,6-tetrahydro-1H-pyrrolo[1,2-b]pyrazole-3-carboxamide]
0.65 | 26300 | 3.83 | 0.18 | 94.5 | 5.7 | 7.26 | CC(=O)Nc1cc(Oc2ccc(NC(=O)c3c4n(n(-c5ccccc5)c3=O)CCC4)cc2)ccn1 [Ex. 3, N-(4-((2-acetamidopyridin-4-yl)oxy)phenyl)-2-oxo-1-phenyl-2,4,5,6-tetrahydro-1H-pyrrolo[1,2-b]pyrazole-3-carboxamide]
0.333 | 46700 | 6.68 | 0.136 | 72.1 | 16.6 | 2.49 | CC(=O)Nc1cc(Oc2ccc(NC(=O)c3c4n(n(-c5ccccc5)c3=O)CCOC4)nc2)ccn1 [Ex. 12, N-(5-((2-acetamidopyridin-4-yl)oxy)pyridin-2-yl)-2-oxo-1-phenyl-2,4,6,7-tetrahydro-1H-pyrazolo[5,1-c][1,4]oxazine-3-carboxamide]
1.27 | 12900 | 5.01 | 0.359 | 87.9 | 3.32 | 12.5 | O=C(Nc1ccc(Oc2ccnc(NC(=O)C3CC3)c2)cn1)c1c2n(n(-c3ccccc3)c1=O)CCC2 [Ex. 14, N-(5-((2-(cyclopropanecarboxamido)pyridin-4-yl)oxy)pyridin-2-yl)-2-oxo-1-phenyl-2,4,5,6-tetrahydro-1H-pyrrolo[1,2-b]pyrazole-3-carboxamide]
0.3 | 50100 | 7.09 | 0.15 | 66.7 | 2.87 | 14.4 | O=C(Nc1ccc(Oc2ccnc(NC(=O)C3CC3)c2)cc1)c1c2n(n(-c3ccccc3)c1=O)CCOC2 [Ex. 19, N-(4-((2-(cyclopropanecarboxamido)pyridin-4-yl)oxy)phenyl)-2-oxo-1-phenyl-2,4,6,7-tetrahydro-1H-pyrazolo[5,1-c][1,4]oxazine-3-carboxamide]
